# Results taken from PMC8093080 (Biochemistry, 2020).
# Target: T1, trp RNA-binding attenuation protein (TRAP) (Geobacillus stearothermophilus, UniProt Q9X6J6)
# T1 sequence (Q9X6J6 1-74): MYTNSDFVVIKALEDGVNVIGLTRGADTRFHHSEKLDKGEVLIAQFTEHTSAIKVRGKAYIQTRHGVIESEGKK
# Assay: ITC at […]°C in phosphate buffer
smiles,measurement,value
"N[C@@H](Cc1c[nH]c2ccccc12)C(=O)O [Trp, tryptophan]",Kd,115 ± 3 nM
